Source: ChEMBL document CHEMBL1146890, “Arylaminoethyl carbamates as a novel series of potent and selective cathepsin S inhibitors” (Bioorg Med Chem Lett, 2006)

Columns and labels:
Type in all cases: ADME, organism-based
[1] = Volume of distribution in Wistar rat at 3 mg/kg, iv; design: dose 3 mg/kg, route intravenous; details: in vivo, read-out: Vdss
[2] = Cmax in Wistar rat at 10 mg/kg, po; design: dose 10 mg/kg, route oral; details: in vivo
[3] = Half life in Wistar rat at 3 mg/kg, iv; design: dose 3 mg/kg, route intravenous; details: in vivo
[4] = Half life in Wistar rat at 10 mg/kg, po; design: dose 10 mg/kg, route oral; details: in vivo
[5] = Clearance in Wistar rat at 3 mg/kg, iv; design: dose 3 mg/kg, route intravenous; details: in vivo
[6] = Oral bioavailability in Wistar rat at 10 mg/kg, po; details: in vivo
[7] = AUC in Wistar rat at 10 mg/kg, po; design: dose 10 mg/kg, route oral; details: plasma

Vd [1] [L/kg] | Cmax [2] [nM] | half-life [3] [min] | half-life [4] [min] | clearance [5] [mL/min/kg] | bioavailability [6] [%] | AUC [7] [ng·h/mL] | SMILES
4.1 | 774 | 100 | 69 | 52 | 42 | 1350 | C[C@@H](CN1CC(C)(C)c2cc(F)ccc21)NC(=O)O[C@@H](CC1CCCCC1)C(=O)N1CCOCC1
3.1 | 513 | 82 | 62 | 52 | 23 | 733 | C[C@@H](CN1c2ccc(F)cc2CC1(C)C)NC(=O)O[C@@H](CC1CCCCC1)C(=O)N1CCOCC1
1.76 | 118 | 43 | 51 | 52 | 4 | 133 | C[C@@H](CN1CC(C)(C)c2cc(F)ccc21)NC(=O)[C@H](CC1CCCCC1)NC(=O)N1CCOCC1
